These results are taken from patent US8779157B2, “MGLUR4 allosteric potentiators, compositions, and methods of treating neurological dysfunction” (Vanderbilt University, priority 2009, dated 2014).

The assay addresses mGluR4 (UniProt Q14833). Put plainly: mGluR4 potentiation assay (fluorescence, Ca2+ or thallium/GIRK readout; EC20 agonist). The assay is classed as cell-based, human / rat. The settings on record: half maximal effective concentration for mGluR4 potentiation; species of receptor not given. Put shortly: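 Human mGluR4 in CHO cells (Ca2+ dye) or rat mGluR4 with GIRK in HEK cells (thallium dye), read kinetically. Potentiation EC50 and maximum fitted from compound concentration-response at fixed agonist.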

For `O=C(Nc1ccc(N2C(=O)C3CCCN3C2=O)c(Cl)c1)c1ccccn1` (centres unmarked) [Example 1.3.9, N-(3-chloro-4-(1,3-dioxo-1H-pyrrolo[1,2-c]imidazol-2(3H,5H,6H,7H,7aH)-yl)phenyl)picolinamide], the EC50 was determined as 2.11 µM.

As for `CC12CCCCN1C(=S)N(c1ccc(NC(=O)c3ccccn3)cc1Cl)C2=O` (centres unmarked) [Example 1.3.49, N-(3-chloro-4-(8a-methyl-1-oxo-3-thioxohexahydroimidazo[1,5-a]pyridin-2(3H)-yl)phenyl)picolinamide], the EC50 was found to be 0.185 µM.

As to `CC12CCCCN1C(=O)N(c1ccc(NC(=O)c3cscn3)cc1Cl)C2=O` (centres unmarked) [Example 1.3.87, N-(3-chloro-4-(8a-methyl-1,3-dioxohexahydroimidazo[1,5-a]pyridin-2(3H)-yl)phenyl)thiazole-4-carboxamide], the EC50 is 2.67 µM.

For `CN1C(=O)N(c2ccc(NC(=O)c3ccccn3)cc2Cl)C(=O)[C@]1(C)Cc1ccc(F)cc1` [Example 1.3.62, (S)-N-(3-chloro-4-(4-(4-fluorobenzyl)-3,4-dimethyl-2,5-dioxoimidazolidin-1-yl)phenyl)picolinamide], the EC50 was 0.217 µM.

Turning to `CC12CCCCN1C(=O)N(c1ccc(NC(=O)c3cccc(Cl)n3)cc1Cl)C2=O` (centres unmarked) [Example 1.3.85, 6-chloro-N-(3-chloro-4-(8a-methyl-1,3-dioxohexahydroimidazo[1,5-a]pyridin-2(3H)-yl)phenyl)picolinamide], the EC50 is 0.864 µM.

For the compound `O=C(Nc1ccc(N2C(=O)C3CCCCN3C2=S)c(Cl)c1)c1ncc(F)cc1F` (centres unmarked) [Example 1.3.81, N-(3-chloro-4-(1-oxo-3-thioxohexahydroimidazo[1,5-a]pyridin-2(3H)-yl)phenyl)-3,5-difluoropicolinamide], the 50% effective concentration (EC50) worked out at 0.876 µM.

For the compound `O=C(Nc1ccc(N2C(=O)C3COCCN3C2=S)c(Cl)c1)c1cccc(F)n1` (centres unmarked) [Example 1.3.38, N-(3-Chloro-4-(1-oxo-3-thioxodihydro-1H-imidazo[5,1-c][1,4]oxazin-2(3H, 8H,8aH)-yl)phenyl)-6-fluoropicolinamide], the EC50 stood at 0.933 µM.

As for `COc1cc(NC(=O)c2ccccn2)ccc1N1C(=O)C2CCCCN2C1=O` (centres unmarked) [Example 1.3.1, N-(4-(1,3-dioxotetrahydroimidazo[1,5-a]pyridin-2(1H,3H,5H)-yl)-3-methoxyphenyl)picolinamide], the EC50 turned out to be 2.7 µM.

Regarding `CC12CCCCN1C(=S)N(c1ccc(NC(=O)c3cscn3)cc1Cl)C2=O` (centres unmarked) [Example 1.3.95, N-(3-chloro-4-(8a-methyl-1-oxo-3-thioxohexahydroimidazo[1,5-a]pyridin-2(3H)-yl)phenyl)thiazole-4-carboxamide], the EC50 stood at 1.05 µM.

Consider `O=C(Nc1ccc(N2C(=O)C3COCCN3C2=O)c(Cl)c1)c1ccc(Cl)o1` (centres unmarked) [Example 1.3.28, 5-Chloro-N-(3-chloro-4-(1,3-dioxodihydro-1H-imidazo[5,1-c][1,4]oxazin-2(3H,8H,8aH)-yl)phenyl)furan-2-carboxamide], for which the EC50 is 8.77 µM.

`O=C(Nc1ccc(N2C(=O)NC3(CCCC3)C2=O)c(Cl)c1)c1ccccn1` [Example 1.3.13, N-(3-chloro-4-(2,4-dioxo-1,3-diazaspiro[4.4]nonan-3-yl)phenyl)picolinamide]: the EC50 came out at 0.795 µM.

As for `O=C(Nc1ccc(N2C(=O)C3CCCCN3C2=S)c(Cl)c1)c1ccc(Cl)o1` (centres unmarked) [Example 1.3.82, 5-chloro-N-(3-chloro-4-(1-oxo-3-thioxohexahydroimidazo[1,5-a]pyridin-2(3H)-yl)phenyl)furan-2-carboxamide], the EC50 stood at 2.85 µM.

Consider `C[C@@]1(Cc2ccccc2)NC(=O)N(c2ccc(NC(=O)c3nccs3)cc2Cl)C1=O` [Example 1.3.67, (S)-N-(4-(4-benzyl-4-methyl-2,5-dioxoimidazolidin-1-yl)-3-chlorophenyl)thiazole-2-carboxamide], for which the EC50 worked out at 6.11 µM.

Take `CC1(C)NC(=O)N(c2ccc(NC(=O)c3ccccn3)cc2Cl)C1=O` [Example 1.3.18, N-(3-chloro-4-(4,4-dimethyl-2,5-dioxoimidazolidin-1-yl)phenyl)picolinamide]: the 50% effective concentration (EC50) stood at 4.21 µM.

For the compound `O=C(Nc1ccc(N2C(=O)NC3(CCCCC3)C2=O)c(Cl)c1)c1ccccn1` [Example 1.3.12, N-(3-chloro-4-(2,4-dioxo-1,3-diazaspiro[4.5]decan-3-yl)phenyl)picolinamide], the EC50 worked out at 0.229 µM.

On to `CC12CCCCN1C(=S)N(c1ccc(NC(=O)c3ncc(F)cc3F)cc1Cl)C2=O` (centres unmarked) [Example 1.3.96, N-(3-chloro-4-(8a-methyl-1-oxo-3-thioxohexahydroimidazo[1,5-a]pyridin-2(3H)-yl)phenyl)-3,5-difluoropicolinamide], for which the EC50 is 0.295 µM.

As to `CC12CCCCN1C(=S)N(c1ccc(NC(=O)c3nccs3)cc1Cl)C2=O` (centres unmarked) [Example 1.3.94, N-(3-chloro-4-(8a-methyl-1-oxo-3-thioxohexahydroimidazo[1,5-a]pyridin-2(3H)-yl)phenyl)thiazole-2-carboxamide], the concentration for a half-maximal effect (EC50) turned out to be 0.761 µM.
